Holding throughout (assay type): cell-based
One assay deals with IGF-1R (Homo sapiens, UniProt P08069). Description: IGF-1R phosphorylation ELISA in MCF-7/HER2-18 cells. More on the design: endogenous in cells; host or cells: MCF-7/HER2-18. Conditions: 3 nM IGF-I 10 min. On the technique in general: In an ELISA, binding on a coated surface is turned into a signal by an enzyme label.
The subject of another assay is MCF-7/neo cells. Briefly: Tamoxifen and/or NDGA growth inhibition of MCF-7/neo cells (CyQuant). Conditions: Homo sapiens, MCF7, 144 h; MCF-7/neo cells, tamoxifen 100 nM, 6 days. The method, then:
(§1) Cells were estrogen-starved for three days in DMEM containing 10% charcoal-[…]-stripped FCS (CDSS) prior to their plating in 96 well plates. Cells were plated in 100 μl of the same media, allowed to adhere overnight, and then were switched to DMEM+10% CDSS supplemented with 100 pM estrogen. […] The media and inhibitors were refreshed on day 3, the cultures were harvested on day 6, and a CyQuant assay was performed as described above.

The test system of another assay is MCF-7/HER2-18 cells. Briefly: Tamoxifen and/or NDGA growth inhibition of MCF-7/HER2-18 cells (CyQuant). Particulars: Homo sapiens, 144 h; MCF-7/HER2-18 cells, tamoxifen 100 nM, 6 days. The procedure:
as §1

Molecules are shown by their SMILES.

IGF-1R, sequence (P08069 31-1367): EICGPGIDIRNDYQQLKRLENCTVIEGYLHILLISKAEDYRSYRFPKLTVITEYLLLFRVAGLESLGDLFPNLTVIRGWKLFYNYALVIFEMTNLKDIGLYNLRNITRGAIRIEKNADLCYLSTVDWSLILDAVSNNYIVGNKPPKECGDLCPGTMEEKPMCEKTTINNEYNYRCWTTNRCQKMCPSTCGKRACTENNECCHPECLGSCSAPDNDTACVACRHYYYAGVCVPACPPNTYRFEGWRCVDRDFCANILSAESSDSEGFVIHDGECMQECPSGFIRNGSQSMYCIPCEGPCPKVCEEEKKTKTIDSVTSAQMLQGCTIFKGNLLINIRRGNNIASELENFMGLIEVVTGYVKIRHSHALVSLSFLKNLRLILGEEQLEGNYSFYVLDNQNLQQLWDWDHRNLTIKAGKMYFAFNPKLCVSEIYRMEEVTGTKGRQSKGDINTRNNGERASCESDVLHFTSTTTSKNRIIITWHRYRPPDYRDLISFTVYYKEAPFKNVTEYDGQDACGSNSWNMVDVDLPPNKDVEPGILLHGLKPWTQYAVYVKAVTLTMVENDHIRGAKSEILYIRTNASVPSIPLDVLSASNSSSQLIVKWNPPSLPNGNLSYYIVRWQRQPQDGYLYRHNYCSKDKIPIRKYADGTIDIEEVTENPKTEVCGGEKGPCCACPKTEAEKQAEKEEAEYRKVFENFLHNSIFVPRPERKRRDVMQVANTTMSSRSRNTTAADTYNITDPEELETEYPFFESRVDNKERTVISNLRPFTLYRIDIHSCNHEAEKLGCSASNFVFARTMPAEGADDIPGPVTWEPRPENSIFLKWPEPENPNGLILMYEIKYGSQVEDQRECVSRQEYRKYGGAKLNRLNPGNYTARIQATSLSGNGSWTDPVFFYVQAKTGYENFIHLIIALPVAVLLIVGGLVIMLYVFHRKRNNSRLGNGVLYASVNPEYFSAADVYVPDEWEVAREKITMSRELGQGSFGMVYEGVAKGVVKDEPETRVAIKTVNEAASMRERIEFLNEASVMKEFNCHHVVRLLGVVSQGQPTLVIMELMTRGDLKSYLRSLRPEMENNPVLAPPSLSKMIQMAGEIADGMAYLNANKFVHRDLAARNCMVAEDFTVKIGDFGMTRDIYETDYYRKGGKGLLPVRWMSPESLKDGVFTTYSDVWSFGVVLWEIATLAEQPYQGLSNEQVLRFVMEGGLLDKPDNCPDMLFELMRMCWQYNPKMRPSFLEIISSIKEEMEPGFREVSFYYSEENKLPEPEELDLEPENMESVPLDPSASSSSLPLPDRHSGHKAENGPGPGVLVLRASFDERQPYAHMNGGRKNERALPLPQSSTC
Protocol for IGF-1R: RTK inhibitors were dissolved in DMSO and diluted with culture medium before being added to cells for 1.5 hour at 37° C. The final concentration of DMSO during the incubation was 0.3% . For some studies, cells were also stimulated with 3 nM IGF-I for 10 minutes at 37° C. Reactions were terminated by rapidly aspirating medium and washing cells three times with ice cold PBS. Cells were harvested and solubilized in 50 mM HEPES, 150 mM NaCl, 1% Triton X-100, 1 mM PMSF, and 2 mM vanadate for 1 hour at 4° C. Protein concentrations were determined by BCA assay (Pierce, Rockford, Ill.). […] Briefly, 10 μg lysate protein were added to triplicate wells in a 96-well plate coated with monoclonal antibody to the IGF-IR (IR3; 2 μg/ml), and incubated for 18 hours at 4° C. Plates were washed five times and then HRP-conjugated anti-phosphotyrosine antibody (0.3 μg/ml), diluted in Solution B (50 mM HEPES, pH 7.6, 150 mM NaCl, 0.05% Tween-20, 1 mM PMSF, 2 mM vanadate and 1 mg/ml bacitracin), was added for two hours at 22° C. Plates were washed five times prior to color development with TMB substrate, which was terminated with 1.0 M H3PO4. Values for receptor phosphorylation were determined by measuring absorbance at 450 nm.

For `COc1cc2ncnc(Nc3ccc(F)c(Cl)c3)c2cc1OCCCN1CCOCC1` [gefitinib, Gefitinib, reference compound], at IGF-1R, the “IGF-1 stimulated phosphorylation of the IGF-1R” value was “only a weak inhibitory effect”.

With `CC/C(=C(\c1ccccc1)c1ccc(OCCN(C)C)cc1)c1ccccc1` [tamoxifen, reference compound], the inhibition at 0.1 µM was > 50% in the assay with MCF-7/neo cells and 24% in the assay on MCF-7/HER2-18 cells.

For orientation: inhibition means the share of the control response that was lost under treatment. A low value points to a response near the control.

The record behind these values is patent US8143226B2, “Tyrosine kinase receptor antagonists and methods of treatment for breast cancer” (The Regents of the University of California, priority 2005, dated 2012).
